In article PMC3510080, “Identification of Compounds with Anti-Proliferative Activity against Trypanosoma brucei brucei Strain 427 by a Whole Cell Viability Based HTS Campaign” (PLoS Neglected Tropical Diseases, 2012):
Blank lines part the entries; values can stand above or below the compound they belong to.

How the values were obtained:
[1] = test system: T. cruzi Tulahuen strain C2C4; test: T. cruzi Tulahuen strain C2C4 β-galactosidase assay; SI versus L6 cells; type: cell-based, Trypanosoma cruzi
Procedure: (§1) L6 rat skeletal myoblasts, [29] were purchased from the American Type Culture Collection (ATCC, Rockville, MD, USA; ATCC number CRL 1458). This cell line was used for cytotoxicity testing to calculate an SI against T.b. rhodesiense and screened alongside the T.b. rhodesiense, P. falciparum, T. cruzi and L. donovani assays. L6 were also the host cells for the T. cruzi assay. Assays were performed in 96-well microtiter plates, each well containing 100 µl of RPMI 1640 medium supplemented with 1% L-glutamine (200 mM), 10% FCS, and 4000 L6 cells. Serial drug dilutions of eleven 3-fold dilution steps covering a range from 100 to 0.002 µg/ml were prepared. After 70 hours of incubation the plates were inspected under an inverted microscope to assure growth of the controls and sterile conditions. Ten µl of resazurin solution (resazurin, 12.5 mg in 100 ml double-distilled water) was then added to each well and the plates incubated for another 2 hours. Then the plates were read with a Spectramax Gemini XS microplate fluorometer (Molecular Devices Cooperation, Sunnyvale, CA, USA) using an excitation wavelength of 536 nm and an emission wavelength of 588 nm. Data was analysed using the microplate reader software Softmax Pro (Molecular Devices, USA). Podophyllotoxin was used as a positive control in the assay.
Rat skeletal myoblasts (L6 cells) were seeded in 96-well microtitre plates at 2000 cells/well in 100 µl RPMI 1640 medium with 10% FCS and 2 mM l-glutamine. After 24 hours the medium was removed and replaced by 100 µl per well containing 5000 trypomastigote forms of T. cruzi Tulahuen strain C2C4 containing the β-galactosidase (Lac Z) gene. After 48 hours the medium was removed from the wells and replaced by 100 µl fresh medium with or without a serial drug dilution of eleven 3-fold dilution steps covering a range from 100 to 0.002 µg/ml. After 96 hours of incubation the plates were inspected under an inverted microscope to assure growth of the controls and sterility. Then 50 µl of the substrate, containing chlorophenol red-β-D-galactopyranoside (CPRG) and Nonidet, was added to all wells. A colour reaction developed within 2–6 hours that could be read photometrically at 540 nm. Data were transferred into the graphic programme Softmax Pro (Molecular Devices, USA), which calculated IC50 values. The drug benznidazole was used as a positive standard in this assay.

[2] = test system: P. falciparum K1 strain; test: P. falciparum 3H-hypoxanthine incorporation assay; SI versus L6 cells; type: cell-based, Plasmodium falciparum; conditions: Plasmodium falciparum, K1, L6, read-out: Reference Compound Activity P.F (IC50)
Procedure: as §1
Compounds dissolved in DMSO at 10 mg/ml were added to parasite cultures incubated in RPMI 1640 medium without hypoxanthine, supplemented with HEPES (5.94 g/l), NaHCO3 (2.1 g/l), neomycin (100 U/ml), Albumax (5 g/l) and washed human A^+ red blood cells at 2.5% haematocrit (0.3% parasitaemia). Serial drug dilutions of eleven 3-fold dilution steps covering a range from 100 to 0.002 µg/ml were prepared. The 96-well plates were incubated in a humidified atmosphere at 37°C; 4% CO2, 3% O2, 93% N2. After 48 hours, 50 µl of ^3H-hypoxanthine ( = 0.5 µCi) was added to each well of the plate. The plates were incubated for a further 24 hours under the same conditions. The plates were then harvested with a Betaplate cell harvester (Wallac, Zurich, Switzerland), and the red blood cells transferred onto a glass fibre filter then washed with distilled water. The dried filters were inserted into a plastic foil with 10 ml of scintillation fluid, and counted in a Betaplate liquid scintillation counter (Wallac, Zurich, Switzerland). IC50 values were calculated from sigmoidal inhibition curves using Microsoft Excel.

[3] = test system: T.b. rhodesiense STIB900; test: T. b. rhodesiense STIB900 assay (resazurin); SI versus L6 cells; type: cell-based, Trypanosoma brucei rhodesiense
Procedure: as §1
T.b. rhodesiense STIB900 stock was isolated in 1982 from a human patient in Tanzania and after several mouse passages cloned and adapted to axenic culture conditions. Fifty microliters of Minimum Essential Medium (MEM) supplemented with 25 mM HEPES, 1 g/l additional glucose, 1% MEM non-essential amino acids (100×), 0.2 mM 2-mercaptoethanol, 1 mM Na-pyruvate and 15% heat inactivated horse serum was added to each well of a 96-well microtiter plate. Serial drug dilutions of eleven 3-fold dilution steps covering a range from 100 to 0.002 µg/ml were prepared. Four thousand bloodstream form cells of T.b. rhodesiense STIB 900 in 50 µl were added to each well and the plate incubated at 37°C under a 5% CO2 atmosphere for 70 hours. Ten microlitres of resazurin solution (resazurin, 12.5 mg in 100 ml double-distilled water) was then added to each well and incubation continued for a further 2–4 hours. Plates were then read with a Spectramax Gemini XS microplate fluorometer (Molecular Devices, USA) using an excitation wavelength of 536 nm and an emission wavelength of 588 nm. Data was analysed using the microplate reader software Softmax Pro (Molecular Devices, USA). The drug melarsoprol was a positive control against T.b. rhodesiense.

[4] = test system: L. donovani strain MHOM/ET/67/L82 axenic amastigotes; test: L. donovani axenic amastigote fluorescence assay; SI versus L6 cells; type: cell-based, Leishmania donovani
Procedure: as §1
Amastigotes of L. donovani strain MHOM/ET/67/L82 were grown in axenic culture at 37°C in SM medium at pH 5.4 supplemented with 10% heat-inactivated FCS under an atmosphere of 5% CO2 in air. One hundred µl of culture medium containing 10^5 amastigotes from axenic culture with or without a serial drug dilution were seeded in 96-well microtitre plates. Serial drug dilutions of eleven 3-fold dilution steps covering a range from 100 to 0.002 µg/ml were prepared. After 70 hours of incubation the plates were inspected under an inverted microscope to assure growth of the controls and sterile conditions. Ten µl of resazurin solution (12.5 mg resazurin dissolved in 100 ml distilled water) were then added to each well and the plates incubated for another 2 hours. The plates were then read with a Spectramax Gemini XS microplate fluorometer (Molecular Devices, USA) using an excitation wavelength of 536 nm and an emission wavelength of 588 nm. Data was analysed using the software Softmax Pro (Molecular Devices, USA). Decrease of fluorescence ( = inhibition) was expressed as percentage of the fluorescence of control cultures and plotted against the drug concentrations. From the sigmoidal inhibition curves the IC50 values were calculated. Miltefosine served as a known drug control in this assay.

Structure (SMILES): O=C(Cn1ccnc1[N+](=O)[O-])NCc1ccccc1 [Benznidazole, benznidazole, reference compound]
IC50 ([1]; Trypanosoma cruzi, TULAHUEN, L6, positive standard, read-out: Reference Compound Activity T.C (IC50)): 1.68 ± 1.93 µM
Selectivity Index T.C ([1]; relative to L6 cells): >206

IC50 [2]: 0.164 ± 0.0247 µM
Structure (SMILES): CCN(CC)CCCC(C)Nc1ccnc2cc(Cl)ccc12 (stereo not shown) [Chloroquine, reference compound]

Structure (SMILES): Nc1nc(N)nc(Nc2ccc([As]3SCC(CO)S3)cc2)n1 (stereo not shown) [Melarsoprol, melarsoprol, reference compound]
IC50 ([3]; Trypanosoma brucei, L6, read-out: Reference Compound Activity T.R (IC50)): 0.00628 ± 0.00178 µM
Selectivity Index T.R ([3]; relative to L6 cells): 2915

IC50 ([4]; Leishmania donovani, L6, known drug control, read-out: Reference Compound Activity L.D (IC50)): 0.365 ± 0.0937 µM
Structure (SMILES): CCCCCCCCCCCCCCCCOP(=O)([O-])OCC[N+](C)(C)C [Miltefosine, reference compound]
Selectivity Index L.D ([4]; relative to L6 cells): 392
